Measurements as given in US12037344B2, “NLRP3 modulators” (INNATE TUMOR IMMUNITY, INC., priority 2018, dated 2024).
Like-named read-outs stand apart in the source and are kept apart here.

What was measured:
[1] = system: THP-1 cells; assay: Measurement of IL-1β production, hTRF protocol (second alternative procedure), THP-1 cells; type: cell-based, human; details: read-out: NLRP3 hILIB EC50
Method: Measurement of IL-1β Production—hTRF Protocol (Second Alternative Procedure)
Serial dilutions of compounds in DMSO were added to low volume 384 well plates at 100 nl/well using an ECHO 550 acoustic dispenser (Labcyte) to achieve final starting concentration of 10 μM in assay.
THP-1 cells in RPMI (Gibco, 11875) media with 10% FBS at a density of 1×10^6 cell/ml in a T175 flask were treated with a final concentration of phorbol 12-myristate 13-acetate (PMA) (Sigma, P1585) of 50 ng/ml overnight at 37° C. at 5% CO2 for differentiation. Cells were harvested the next day after rinsing well with dPBS using 0.5% trypsin. A cell solution was prepared of 1×10^6 cells/ml for 50,000 cells in 50 μl/well in RPMI media with 2% FBS. Cells were plated using a multichannel pipette onto the compound dilutions in Greiner, 384 well, black clear bottom tissue culture treated plates (781090). The plates were incubated in 37° C. incubator at 5% CO2 for 2 hours.
After the 2 hour incubation, the cell plates were spun in the centrifuge for 5 minutes at 1200 rpm. Using the Felix (CyBio), 8 μl of the supernatant was transferred to 384 well, low volume, white proxy plates. (Perkin Elmer, 6008230). A human IL1beta hTRF kit was used to analyze the supernatant (CISBIO, 62HIL1BPEG). The kit instructions were followed for preparing the IL1Beta standard curve and then the antibodies from the kit were diluted 1:40 rather than 1:20 as kit instructed. Once combined, the antibodies were added across the plates, 5 μl/well. The plates were sealed and incubated at 4° C. overnight. The plates were then read on the Perkin Elmer EnVision at 665/615 nm using the hTRF laser.

[2] = biological target: T1, TLR7 (Homo sapiens, UniProt Q9NYK1); assay: In vitro human TLR7 binding reporter assay (HEK-Blue, NF-kB/AP1-inducible SEAP); type: cell-based; details: read-out: TLR7 Agonist EC50
T1 construct: human HEK-Blue cells co-expressing a TLR7 or TLR8 gene
T1 sequence (Q9NYK1 27-1049): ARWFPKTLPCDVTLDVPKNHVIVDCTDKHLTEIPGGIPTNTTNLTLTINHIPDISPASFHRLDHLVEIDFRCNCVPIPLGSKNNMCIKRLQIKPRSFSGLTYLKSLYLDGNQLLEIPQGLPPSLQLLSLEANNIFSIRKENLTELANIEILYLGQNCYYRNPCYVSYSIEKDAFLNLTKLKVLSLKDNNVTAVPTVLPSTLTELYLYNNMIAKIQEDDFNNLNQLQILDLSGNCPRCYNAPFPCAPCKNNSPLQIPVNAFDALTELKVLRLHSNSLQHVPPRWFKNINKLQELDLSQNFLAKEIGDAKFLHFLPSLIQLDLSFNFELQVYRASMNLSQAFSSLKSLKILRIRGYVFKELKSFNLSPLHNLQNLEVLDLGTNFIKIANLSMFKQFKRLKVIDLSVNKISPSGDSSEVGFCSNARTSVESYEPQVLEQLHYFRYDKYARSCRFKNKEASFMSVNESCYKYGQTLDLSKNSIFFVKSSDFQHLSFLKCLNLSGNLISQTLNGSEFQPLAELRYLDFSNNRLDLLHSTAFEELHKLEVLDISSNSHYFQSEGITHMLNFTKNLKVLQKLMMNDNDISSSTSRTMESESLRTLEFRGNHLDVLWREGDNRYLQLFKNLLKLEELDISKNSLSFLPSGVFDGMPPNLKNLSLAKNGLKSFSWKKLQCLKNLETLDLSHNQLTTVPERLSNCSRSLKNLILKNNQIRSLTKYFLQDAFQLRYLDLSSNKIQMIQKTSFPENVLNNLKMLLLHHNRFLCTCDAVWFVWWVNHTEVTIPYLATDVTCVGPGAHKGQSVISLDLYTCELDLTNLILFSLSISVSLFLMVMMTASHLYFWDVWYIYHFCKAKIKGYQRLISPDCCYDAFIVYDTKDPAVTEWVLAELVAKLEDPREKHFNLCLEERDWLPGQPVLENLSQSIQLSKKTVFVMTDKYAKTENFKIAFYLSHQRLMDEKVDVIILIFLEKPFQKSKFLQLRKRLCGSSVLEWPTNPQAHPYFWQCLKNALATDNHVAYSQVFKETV
Method: (§1) In Vitro Human TLR7 and TLR8 Binding Reporter Assays
(§2) Logarithmically-growing human HEK-Blue cells co-expressing a TLR7 or TLR8 gene and a NF-kB/AP1-inducible SEAP (secreted embryonic alkaline phosphatase; Invivogen, San Diego, CA) reporter gene are added to individual wells of a 384-well plate (15,000 cells per 20 μL per well) and maintained for 24 h at 37° C., 5% CO2. Test compounds or DMSO are distributed to separate wells the next day using acoustic liquid handling technology (100 nL per well) and cells are subsequently incubated for 18 h at 37° C., 5% CO2. Cellular SEAP production is measured using an Envision plate reader instrument thirty minutes after adding freshly-made Quanti-Blue reagent (prepared by following manufacturer instructions; Invivogen, San Diego, CA) to the HEK-Blue TLR Nf-kB-SEAP cell reactions. All EC50 values (half-maximal effective concentration) are determined using proprietary data analysis software. Normalized EC50 value=absolute value determined by setting 100% Ymax using a reference standard RLU (relative light unit) values from cells treated with 50 μM of the reference standard.

[3] = biological target: T2, TLR8 (Homo sapiens, UniProt Q9NR97); assay: In vitro human TLR8 binding reporter assay (HEK-Blue, NF-kB/AP1-inducible SEAP); type: cell-based; details: read-out: TLR8 Agonist EC50
T2 construct: human HEK-Blue cells co-expressing a TLR7 or TLR8 gene
T2 sequence (Q9NR97 27-1041): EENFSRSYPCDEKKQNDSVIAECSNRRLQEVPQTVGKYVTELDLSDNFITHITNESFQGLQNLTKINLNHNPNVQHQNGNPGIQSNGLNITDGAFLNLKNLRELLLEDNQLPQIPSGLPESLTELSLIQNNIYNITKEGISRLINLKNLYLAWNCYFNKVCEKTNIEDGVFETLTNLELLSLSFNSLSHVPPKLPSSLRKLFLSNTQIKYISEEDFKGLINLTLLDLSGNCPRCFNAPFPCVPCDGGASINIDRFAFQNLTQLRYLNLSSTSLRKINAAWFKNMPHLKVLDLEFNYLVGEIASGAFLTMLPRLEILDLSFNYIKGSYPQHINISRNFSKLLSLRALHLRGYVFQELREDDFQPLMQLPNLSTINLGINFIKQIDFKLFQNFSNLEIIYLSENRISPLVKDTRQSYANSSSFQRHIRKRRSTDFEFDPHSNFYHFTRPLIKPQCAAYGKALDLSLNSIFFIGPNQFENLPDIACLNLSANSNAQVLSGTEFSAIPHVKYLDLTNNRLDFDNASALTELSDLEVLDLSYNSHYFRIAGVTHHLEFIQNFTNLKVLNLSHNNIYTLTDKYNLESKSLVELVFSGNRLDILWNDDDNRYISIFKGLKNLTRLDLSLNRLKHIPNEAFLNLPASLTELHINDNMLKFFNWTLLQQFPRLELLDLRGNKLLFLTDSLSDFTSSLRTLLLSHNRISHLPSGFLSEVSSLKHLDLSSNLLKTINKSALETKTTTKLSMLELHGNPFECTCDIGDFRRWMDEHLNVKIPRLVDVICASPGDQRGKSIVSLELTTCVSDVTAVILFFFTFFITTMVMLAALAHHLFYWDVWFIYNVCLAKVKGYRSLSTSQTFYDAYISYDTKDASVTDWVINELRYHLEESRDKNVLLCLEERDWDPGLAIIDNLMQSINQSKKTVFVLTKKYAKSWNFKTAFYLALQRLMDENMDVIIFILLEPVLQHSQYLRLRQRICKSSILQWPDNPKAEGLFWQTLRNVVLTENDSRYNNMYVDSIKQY
Method: as §1, §2

[4] = Homo sapiens, THP-1, IL-1β production, human
[5] = Homo sapiens, THP-1, IL-1β production, human cells

EC50 [1, 4]	EC50 ([2]; activity range class)	EC50 ([3]; activity range class)	EC50 [1, 5]	EC50 ([2]; activity range)	EC50 ([3]; activity range)	EC50 ([1]; IL-1β production, human)	Structure (SMILES)
0.63 µM	> 100 µM	> 100 µM	–	–	–	–	Nc1nc2cc(-c3cc[nH]n3)ccc2c2cn(CCNC(=O)c3cocn3)nc12 [Example 44]
0.31 µM	> 100 µM	> 100 µM	–	–	–	–	Cc1cc(C)n(CCn2cc3c(n2)c(N)nc2cc(-c4cc[nH]n4)ccc23)n1 [Example 166]
–	–	–	0.34 µM	1 to 20 µM	> 100 µM	–	Nc1nc2cc(-c3cc[nH]n3)ccc2c2cn(CCOC(F)F)nc12 [Example 397]
–	–	–	0.22 µM	> 100 µM	> 100 µM	–	NC(=O)CCn1cc2c(N)nc3cc(-c4cc[nH]n4)ccc3c2n1 [Example 462]
0.33 µM	> 100 µM	> 100 µM	–	–	–	–	Nc1nc2cc(-c3cc[nH]n3)ccc2c2nn([C@@H]3CC[C@H](O)C3)cc12 (relative stereo) [Example 210, cis-3-(4-amino-7-(1H-pyrazol-3-yl)-2H-pyrazolo[4,3-c]quinolin-2-yl)cyclopentan-1-ol]
0.75 µM	> 100 µM	> 100 µM	–	–	–	–	Nc1nc2cc(-c3ccn[nH]3)ccc2c2nn(CC3CCCN3)cc12 (stereo not drawn) [Example 278]
–	–	–	0.43 µM	> 100 µM	> 100 µM	–	CNC(=O)C(C)Cn1cc2c(N)nc3cc(-c4cc[nH]n4)ccc3c2n1 (stereo not drawn) [Example 612]
–	–	–	0.38 µM	> 100 µM	> 100 µM	–	COc1nc(C(=O)NCCc2cc3c(N)nc4cc(-c5ccn[nH]5)ccc4c3[nH]2)cs1 [Example 447]
1.72 µM	> 100 µM	> 100 µM	–	–	–	–	Nc1nc2cc(-c3ccn[nH]3)ccc2c2nn(CCNC3CCC3)cc12 [Example 280]
–	–	–	2.02 µM	> 100 µM	> 100 µM	–	CC(C(=O)NCc1ccccc1)n1cc2c(N)nc3cc(-c4ccn[nH]4)ccc3c2n1 (stereo not drawn) [Example 571]
0.45 µM	> 100 µM	> 100 µM	–	–	–	–	Nc1nc2cc(-c3cc[nH]n3)ccc2c2cn(CCCO)nc12 [Example 1, 3-[4-amino-7-(1H-pyrazol-3-yl)-2H-pyrazolo[3,4-c]quinolin-2-yl]propan-1-ol]
–	–	–	1.86 µM	> 100 µM	> 100 µM	–	CNC(=O)CC(C)n1cc2c(N)nc3cc(-c4cc[nH]n4)ccc3c2n1 (stereo not drawn) [Example 621]
0.97 µM	> 100 µM	20 to 100 µM	–	–	–	–	Nc1nc2cc(-c3ccn[nH]3)ccc2c2nn(CCNC(=O)c3csc(Cl)n3)nc12 [Example 158]
0.21 µM	1 to 20 µM	> 100 µM	–	–	–	–	COCCn1cc2c(n1)c(N)nc1cc(-c3ccn[nH]3)ccc12 [Example 185]
2.3 µM	> 100 µM	> 100 µM	–	–	–	–	CS(=O)(=O)CCCn1cc2c(N)nc3cc(-n4cccn4)ccc3c2n1 [Example 387]
0.3 µM	> 100 µM	> 100 µM	–	–	–	–	COCCCCn1ncc2c(N)nc3cc(-c4cc[nH]n4)ccc3c21 [Example 219]
–	–	–	4.09 µM	> 100 µM	> 100 µM	–	Nc1nc2cc(-c3cc[nH]n3)ccc2c2nn(CCC(=O)NCC(F)F)cc12 [Example 515]
0.48 µM	> 100 µM	> 100 µM	–	–	–	–	Nc1nc2cc(-c3cc[nH]n3)ccc2c2nn(CCNC(=O)c3cnccn3)cc12 [Example 201]
1.83 µM	> 100 µM	> 100 µM	–	–	–	–	Nc1nc2cc(-c3cc[nH]n3)ccc2c2cn(CCNC(=O)c3ncccn3)nc12 [Example 70]
0.58 µM	> 100 µM	> 100 µM	–	–	–	–	COC1CCC(n2cc3c(N)nc4cc(-c5cc[nH]n5)ccc4c3n2)C1 (stereo not drawn) [Example 246]
–	–	–	0.26 µM	> 100 µM	> 100 µM	–	CCn1c(CN(C)C)cc2c(N)nc3cc(-c4ccn[nH]4)ccc3c21 [Example 444]
–	–	–	9.56 µM	> 100 µM	> 100 µM	–	CC(CC(=O)N1CCOCC1)n1cc2c(N)nc3cc(-c4cc[nH]n4)ccc3c2n1 (stereo not drawn) [Example 616]
0.49 µM	> 100 µM	> 100 µM	–	–	–	–	Nc1nc2cc(-c3cc[nH]n3)ccc2c2nn(C3CCCC3O)cc12 (single isomer, unassigned) [Example 314]
9.76 µM	> 100 µM	> 100 µM	–	–	–	–	Nc1nc2cc(-c3cc[nH]n3)ccc2c2cn(CCCNC(=O)c3ccccn3)nc12 [Example 124]
0.29 µM	> 100 µM	> 100 µM	–	–	–	–	CCCCn1cc2c(N)nc3cc(-c4cc[nH]n4)ccc3c2n1 [Example 305]
–	> 100 µM	> 100 µM	–	–	–	36.7 µM	CN1CCOC(C(=O)NCCn2cc3c(n2)c(N)nc2cc(-c4cc[nH]n4)ccc23)C1 (single isomer, unassigned) [Example 180]
